What is called Ki is a dissociation constant, usually derived from enzyme kinetics or from competition with a known ligand. A word on the EC50: it is the midpoint of the concentration-response curve.

The structures appear in SMILES notation.

The results in this text go back to patent US10781204B2, “TYK2 inhibitors and uses thereof” (Nimbus Lakshmi, Inc., priority 2015, dated 2020).

One assay has as its target TYK2 (Homo sapiens (Human), UniProt P29597). Nature of the assay: Tyk2 radioactive kinase assay. Type of assay: biochemical. To be noted: ATP 10 μM. The procedure: (§1) Peptide substrate, [KKSRGDYMTMQIG], (20 μM) is prepared in reaction buffer (20 mM Hepes pH 7.5, 10 mM MgCl2, 1 mM EGTA, 0.02% Brij35, 0.02 mg/mL BSA, 0.1 mM […], 2 mM DTT, 1% DMSO. TYK2 (Invitrogen) kinase is added, followed by compounds in DMSO. ^33PATP is added to initiate the reaction with ATP at 10 μM. Kinase reaction is incubated for 120 min at room temp and reactions are spotted onto P81 ion exchange paper (Whatman #3698-915), and then washed extensively in 0.75% phosphoric acid, prior to reading the radioactivity counts. For JAK2 (Invitrogen) kinase assay the peptide substrate poly[Glu:Tyr] (4:1), 0.2 mg/ml is used, in the reaction carried out the same as for TYK2.

Another assay addresses JAK2 (Homo sapiens (Human), UniProt O60674). The assay is described as follows: JAK2 radioactive kinase assay. Type of assay: biochemical. Particulars: ATP 10 μM. The procedure:
as §1

Assay [1] deals with JAK2-pSTAT5 (GM-CSF induced pSTAT5). Nature of the assay: GM-CSF induced pSTAT5 in human PBMC. To be noted: 20 min, 5 ng/mL GM-CSF. Type of assay: cell-based. The procedure: (§2) Human PBMC are isolated from buffy coat and are stored frozen for assays as needed. Cells for assay are thawed and resuspended in complete media containing serum, then cells are diluted to 1.67 E6 cells/ml so that 120 ul per well is 200,000 cells. 15 ul of compound or DMSO is added to the well at the desired concentrations and incubated at 1 hr at 37 C. 15 ul of stimulus (final concentration of 1.7 ng/mL IL-12) is added for 30 minutes prior to pSTAT4 and total STAT4 analysis using cell lysates prepared and analyzed by MSD reagents as per manufacturer protocol. The final DMSO concentration of compound in the assay is 0.1%.
Cells are prepared for analysis as in the above procedure and 15 ul of GM-CSF (final concentration 5 ng/mL) is added for 20 minutes prior to pSTAT5 and total STAT5 analysis using cell lysates prepared and analyzed by MSD reagents as per manufacturer protocol. The final DMSO concentration of compound in the assay is 0.1%.

The test system of assay [2] is Tyk2-pSTAT4 (IL-12 induced pSTAT4). The assay is described as follows: IL-12 induced pSTAT4 in human PBMC. Type of assay: cell-based. To be noted: Homo sapiens, PBMC, 0.5 h, 1.7 ng/mL IL-12, 30 minutes. The procedure: as §2

Sequence of TYK2 (P29597 whole entry): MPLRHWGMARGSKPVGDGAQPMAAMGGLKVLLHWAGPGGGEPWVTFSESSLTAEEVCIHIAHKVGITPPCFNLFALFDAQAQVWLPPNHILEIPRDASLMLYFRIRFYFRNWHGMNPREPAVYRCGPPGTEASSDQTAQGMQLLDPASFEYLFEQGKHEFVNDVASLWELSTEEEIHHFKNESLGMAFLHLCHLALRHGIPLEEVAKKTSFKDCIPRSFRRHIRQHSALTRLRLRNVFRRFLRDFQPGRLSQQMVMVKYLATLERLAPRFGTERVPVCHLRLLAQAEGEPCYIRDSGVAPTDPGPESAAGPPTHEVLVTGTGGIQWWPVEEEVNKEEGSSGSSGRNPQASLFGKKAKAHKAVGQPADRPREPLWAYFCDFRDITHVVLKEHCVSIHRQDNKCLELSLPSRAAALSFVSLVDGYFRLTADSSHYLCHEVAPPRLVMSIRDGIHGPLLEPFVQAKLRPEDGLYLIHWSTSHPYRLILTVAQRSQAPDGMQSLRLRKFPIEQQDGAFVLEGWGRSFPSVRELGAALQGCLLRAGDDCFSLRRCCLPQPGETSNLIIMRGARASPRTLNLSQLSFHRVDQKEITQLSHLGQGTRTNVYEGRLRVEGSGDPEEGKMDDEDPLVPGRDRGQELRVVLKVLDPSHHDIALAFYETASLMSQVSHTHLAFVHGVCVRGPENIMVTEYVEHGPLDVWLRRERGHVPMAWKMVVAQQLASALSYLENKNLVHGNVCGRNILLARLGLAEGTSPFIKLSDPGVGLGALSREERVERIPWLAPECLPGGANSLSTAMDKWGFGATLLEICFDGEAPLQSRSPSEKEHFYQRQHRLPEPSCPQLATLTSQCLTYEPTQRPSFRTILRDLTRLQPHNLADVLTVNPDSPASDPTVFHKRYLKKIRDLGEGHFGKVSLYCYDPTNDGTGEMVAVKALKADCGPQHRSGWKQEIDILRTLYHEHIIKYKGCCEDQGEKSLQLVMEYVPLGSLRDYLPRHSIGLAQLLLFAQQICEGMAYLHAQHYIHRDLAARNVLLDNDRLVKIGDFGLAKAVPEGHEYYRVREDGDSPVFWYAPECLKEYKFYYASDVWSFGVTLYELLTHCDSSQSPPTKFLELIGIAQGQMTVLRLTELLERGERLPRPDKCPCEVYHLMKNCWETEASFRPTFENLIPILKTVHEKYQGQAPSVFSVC
Sequence of JAK2 (O60674 whole entry): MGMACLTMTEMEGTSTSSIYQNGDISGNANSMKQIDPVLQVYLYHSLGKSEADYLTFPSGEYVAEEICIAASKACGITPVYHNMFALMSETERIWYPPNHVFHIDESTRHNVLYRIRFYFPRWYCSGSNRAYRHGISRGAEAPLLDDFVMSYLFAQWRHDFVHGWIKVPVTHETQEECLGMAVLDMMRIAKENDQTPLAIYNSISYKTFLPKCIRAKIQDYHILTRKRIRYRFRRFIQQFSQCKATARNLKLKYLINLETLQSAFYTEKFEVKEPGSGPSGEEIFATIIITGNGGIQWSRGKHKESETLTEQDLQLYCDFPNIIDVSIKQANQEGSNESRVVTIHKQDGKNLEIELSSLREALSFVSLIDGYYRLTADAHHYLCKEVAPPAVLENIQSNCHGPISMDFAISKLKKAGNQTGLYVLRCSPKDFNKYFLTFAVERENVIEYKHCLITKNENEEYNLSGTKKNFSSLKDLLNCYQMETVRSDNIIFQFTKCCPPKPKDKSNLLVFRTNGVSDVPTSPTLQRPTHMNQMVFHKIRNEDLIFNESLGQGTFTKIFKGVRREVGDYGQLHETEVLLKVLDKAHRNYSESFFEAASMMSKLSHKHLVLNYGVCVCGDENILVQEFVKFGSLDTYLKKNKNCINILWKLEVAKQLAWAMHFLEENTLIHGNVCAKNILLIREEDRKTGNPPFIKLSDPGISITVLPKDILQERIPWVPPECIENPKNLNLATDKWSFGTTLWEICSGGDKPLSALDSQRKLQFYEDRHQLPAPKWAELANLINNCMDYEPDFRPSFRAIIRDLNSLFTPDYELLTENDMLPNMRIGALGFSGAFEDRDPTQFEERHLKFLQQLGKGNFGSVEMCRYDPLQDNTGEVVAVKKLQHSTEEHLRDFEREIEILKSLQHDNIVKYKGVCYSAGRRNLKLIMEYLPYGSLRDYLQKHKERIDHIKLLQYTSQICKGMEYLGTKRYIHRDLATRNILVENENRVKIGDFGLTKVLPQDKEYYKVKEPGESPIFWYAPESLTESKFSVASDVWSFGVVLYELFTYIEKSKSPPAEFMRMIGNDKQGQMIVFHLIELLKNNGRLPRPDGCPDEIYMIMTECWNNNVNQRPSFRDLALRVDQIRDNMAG

`N#Cc1cccc(F)c1-c1cc(-c2cc3n(n2)CC(O)CN3)c2c(n1)CNC2=O` (stereo not drawn) [I-235, 3-fluoro-2-(4-(6-hydroxy-4,5,6,7-tetrahydropyrazolo[1,5-a]pyrimidin-2-yl)-5-oxo-6,7-dihydro-5H-pyrrolo[3,4-b]pyridin-2-yl)benzonitrile]: the inhibition constant Ki on TYK2 and at JAK2 was 0.1 to 10 nM in each case. In addition, the 50% effective concentration (EC50) in assay [1] (Homo sapiens, PBMC) is above 2000 nM.
`N#Cc1cccc(F)c1-c1cc(-n2ccc(C3CCCO3)n2)c2c(n1)CNC2=O` (stereo not drawn) [I-101, 3-fluoro-2-(5-oxo-4-(3-(tetrahydrofuran-2-yl)-1H-pyrazol-1-yl)-6,7-dihydro-5H-pyrrolo[3,4-b]pyridin-2-yl)benzonitrile]: the Ki is 0.1 to 10 nM on TYK2 and 10 to 100 nM on JAK2. Also, the EC50 in assay [1] (Homo sapiens, PBMC) was above 2000 nM.
Take `N#Cc1cccc(F)c1-c1cc(-n2ccc(N3CCCC(N)C3)n2)c2c(n1)CNC2=O` (stereo not drawn) [I-68, 2-(4-(3-(3-aminopiperidin-1-yl)-1H-pyrazol-1-yl)-5-oxo-6,7-dihydro-5H-pyrrolo[3,4-b]pyridin-2-yl)-3-fluorobenzonitrile]: the Ki at TYK2 lay in the range of 0.1 to 10 nM; at JAK2, 10 to 100 nM. The molecule further gave a half-maximal effective concentration (EC50) in assay [1] (Homo sapiens, PBMC) above 2000 nM.
`CCNC(=O)Cc1ccn(-c2cc(-c3c(F)cccc3F)nc3c2C(=O)NC3)n1` [I-2, 2-(1-(2-(2,6-difluorophenyl)-5-oxo-6,7-dihydro-5H-pyrrolo[3,4-b]pyridin-4-yl)-1H-pyrazol-3-yl)-N-ethylacetamide]: the values for the Ki at TYK2 and on JAK2 were 10 to 100 nM and at least 1000 nM, respectively. Also, in assay [1], the EC50 was above 2000 nM.
In the case of `N#Cc1cccc(F)c1-c1cc(-n2cc3c(n2)CC(C(N)=O)CN3)c2c(n1)CNC2=O` (stereo not drawn) [I-180, 2-(2-(2-cyano-6-fluorophenyl)-5-oxo-6,7-dihydro-5H-pyrrolo-[3,4-b]pyridin-4-yl)-4,5,6,7-tetrahydro-2H-pyrazolo[4,3-b]pyridine-6-carboxamide], the inhibition constant (Ki) at TYK2 is 0.1 to 10 nM; on JAK2, 10 to 100 nM. This molecule also registered an EC50 in assay [1] (Homo sapiens, PBMC) above 2000 nM.
Consider `CC1CC(O)CC(C)N1c1ccn(-c2cc(-c3c(F)cccc3C#N)nc3c2C(=O)NC3)n1` (stereo not drawn) [I-85, 3-fluoro-2-(4-(3-(4-hydroxy-2,6-dimethylpiperidin-1-yl)-1H-pyrazol-1-yl)-5-oxo-6,7-dihydro-5H-pyrrolo[3,4-b]pyridin-2-yl)benzonitrile], for which the Ki is 10 to 100 nM at TYK2 and at least 1000 nM at JAK2. In assay [1] (Homo sapiens, PBMC), this molecule returned an EC50 above 2000 nM.
With `N#Cc1cccc(F)c1-c1cc(-n2ccc(N3CCOC[C@H]3CO)n2)c2c(n1)CNC2=O` [I-164, (R)-3-fluoro-2-(4-(3-(3-(hydroxymethyl)morpholino)-1H-pyrazol-1-yl)-5-oxo-6,7-dihydro-5H-pyrrolo[3,4-b]pyridin-2-yl)benzonitrile], the Ki at TYK2 and at JAK2 was 0.1 to 10 nM in each case. In addition, the EC50 in assay [1] (Homo sapiens, PBMC) is above 2000 nM.
Take `O=C1NCc2nc(-c3c(F)cccc3F)cc(-n3ccc(N4CCC5(CCOCC5)CC4)n3)c21` [I-9, 4-(3-(3-oxa-9-azaspiro[5.5]undecan-9-yl)-1H-pyrazol-1-yl)-2-(2,6-difluorophenyl)-6,7-dihydro-5H-pyrrolo[3,4-b]pyridin-5-one]: the Ki at TYK2 is 0.1 to 10 nM; on JAK2, 100 to 1000 nM. In addition, the EC50 in assay [1] (Homo sapiens, PBMC) is above 2000 nM.
On the same counts, the results for `N#Cc1cccc(F)c1-c1cc(-n2ccc(C3CCOCC3)n2)c2c(n1)CNC2=O` [I-16, 3-fluoro-2-(5-oxo-4-(3-(tetrahydro-2H-pyran-4-yl)-1H-pyrazol-1-yl)-6,7-dihydro-5H-pyrrolo[3,4-b]pyridin-2-yl)benzonitrile] are 0.1 to 10 nM, 100 to 1000 nM and above 2000 nM.
For the molecule `CC1(C)COC(c2ccn(-c3cc(-c4c(F)cccc4C#N)nc4c3C(=O)NC4)n2)=N1` [I-60, 2-(4-(3-(4,4-dimethyl-4,5-dihydrooxazol-2-yl)-1H-pyrazol-1-yl)-5-oxo-6,7-dihydro-5H-pyrrolo[3,4-b]pyridin-2-yl)-3-fluorobenzonitrile], the Ki at TYK2 is 0.1 to 10 nM; at JAK2, 10 to 100 nM. The EC50 in assay [1] (Homo sapiens, PBMC) was above 2000 nM.
On the same counts, the results for `N#Cc1cccc(F)c1-c1cc(-n2ccc(N3CCC[C@H](N)C3)n2)c2c(n1)CNC2=O` [I-74, (S)-2-(4-(3-(3-aminopiperidin-1-yl)-1H-pyrazol-1-yl)-5-oxo-6,7-dihydro-5H-pyrrolo[3,4-b]pyridin-2-yl)-3-fluorobenzonitrile] are 0.1 to 10 nM, 10 to 100 nM and above 2000 nM.
As for `C[C@@]1(O)CN(c2ccn(-c3cc(-c4c(F)cccc4C#N)nc4c3C(=O)NC4)n2)C[C@@](C)(O)C1` [I-145, 2-(4-(3-((3S,5S)-3,5-dihydroxy-3,5-dimethylpiperidin-1-yl)-1H-pyrazol-1-yl)-5-oxo-6,7-dihydro-5H-pyrrolo[3,4-b]pyridin-2-yl)-3-fluorobenzonitrile], the inhibition constant (Ki) on TYK2 fell in the range of 0.1 to 10 nM; on JAK2, 10 to 100 nM. The molecule further showed an EC50 in assay [1] (Homo sapiens, PBMC) above 2000 nM.
On the same counts, the results for `CCNC(=O)c1ccn(-c2cc(-c3c(F)cccc3F)nc3c2C(=O)NC3)n1` [I-3, 1-(2-(2,6-difluorophenyl)-5-oxo-6,7-dihydro-5H-pyrrolo[3,4-b]pyridin-4-yl)-N-ethyl-1H-pyrazole-3-carboxamide] are 0.1 to 10 nM, 100 to 1000 nM and above 2000 nM.
On the same counts, the results for `N#Cc1cccc(F)c1-c1cc(-n2cc3c(n2)NCCC3)c2c(n1)CNC2=O` [I-75, 3-fluoro-2-(5-oxo-4-(4,5,6,7-tetrahydro-2H-pyrazolo[3,4-b]pyridin-2-yl)-6,7-dihydro-5H-pyrrolo[3,4-b]pyridin-2-yl)benzonitrile] are 0.1 to 10 nM, 0.1 to 10 nM and above 2000 nM.
For `CC1CCC(O)CN1c1ccn(-c2cc(-c3c(F)cccc3C#N)nc3c2C(=O)NC3)n1` (stereo not drawn) [I-96, 3-fluoro-2-(4-(3-(5-hydroxy-2-methylpiperidin-1-yl)-1H-pyrazol-1-yl)-5-oxo-6,7-dihydro-5H-pyrrolo[3,4-b]pyridin-2-yl)benzonitrile], the inhibition constant (Ki) is 0.1 to 10 nM on TYK2 and 10 to 100 nM at JAK2. This molecule registered a 50% effective concentration (EC50) in assay [1] (Homo sapiens, PBMC) above 2000 nM.
On the same counts, the results for `CN1CC2(CCN(c3ccn(-c4cc(-c5c(F)cccc5C#N)nc5c4C(=O)NC5)n3)CC2)C1` [I-110, 3-fluoro-2-(4-(3-(2-methyl-2,7-diazaspiro[3.5]nonan-7-yl)-1H-pyrazol-1-yl)-5-oxo-6,7-dihydro-5H-pyrrolo[3,4-b]pyridin-2-yl)benzonitrile] are at least 1000 nM, at least 1000 nM and above 2000 nM.
Regarding `N#Cc1cccc(F)c1-c1cc(-n2ccc(N3CCCC(O)(C(F)(F)F)C3)n2)c2c(n1)CNC2=O` (stereo not drawn) [I-80, 3-fluoro-2-(4-(3-(3-hydroxy-3-(trifluoromethyl)piperidin-1-yl)-1H-pyrazol-1-yl)-5-oxo-6,7-dihydro-5H-pyrrolo[3,4-b]pyridin-2-yl)benzonitrile], the figures for the Ki at TYK2 and on JAK2 were 0.1 to 10 nM and 10 to 100 nM, respectively. Besides, the 50% effective concentration (EC50) in assay [1] (Homo sapiens, PBMC) is above 2000 nM.
With `C[C@]1(O)CCN(c2ccn(-c3cc(-c4c(F)cccc4C#N)nc4c3C(=O)NC4)n2)C1` [I-93, (S)-3-fluoro-2-(4-(3-(3-hydroxy-3-methylpyrrolidin-1-yl)-1H-pyrazol-1-yl)-5-oxo-6,7-dihydro-5H-pyrrolo[3,4-b]pyridin-2-yl)benzonitrile], the values for the Ki at TYK2 and on JAK2 were 0.1 to 10 nM and 10 to 100 nM, respectively. For the same molecule, the half-maximal effective concentration (EC50) in assay [2] fell in the range of 30 to 100 nM.
